According to BindingDB's records for doi:10.1038/nchembio.2304 (Novartis Institutes for BioMedical Research, 2017):

Key:
Test in all cases: HMT Assay
[1] = target: Histone-lysine N-methyltransferase SETD7 (Homo sapiens, UniProt Q8WTS6)
Method: (§1) All HMT reactions were performed as described previously [Nasveschuk et al., ACS Med. Chem. Lett., 5:378-383].

[2] = target: Histone-lysine N-methyltransferase SMYD3 (Homo sapiens, UniProt Q9H7B4)
Method: as §1

[3] = target: N-lysine methyltransferase SMYD2 (Homo sapiens, UniProt Q9NRG4)
Method: as §1

[4] = target: Histone-lysine N-methyltransferase SETD2 (Homo sapiens, UniProt Q9BYW2)
Method: as §1

[5] = target: Histone-lysine N-methyltransferase NSD2 (Homo sapiens, UniProt O96028)
Method: as §1

[6] = target: Histone-arginine methyltransferase CARM1 (Homo sapiens, UniProt Q86X55)
Method: as §1

[7] = target: Histone-lysine N-methyltransferase SETDB1 (Homo sapiens, UniProt Q15047)
Method: as §1

[8] = target: Histone-lysine N-methyltransferase EHMT2 (Homo sapiens, UniProt Q96KQ7)
Method: as §1

[9] = target: Histone-lysine N-methyltransferase, H3 lysine-79 specific (Homo sapiens, UniProt Q8TEK3)
Method: as §1

[10] = target: T1, Receptor-type tyrosine-protein kinase FLT3 [563-993,D835Y] (Human, UniProt P36888, D835Y)
T1 construct: 563-993

[11] = target: T2, Fibroblast growth factor receptor 4 [388-802] (Human, UniProt P22455)
T2 construct: 388-802

[12] = target: 5-hydroxytryptamine receptor 1A (Homo sapiens, UniProt P08908)
D(1A) dopamine receptor = D(1A) dopamine receptor (Homo sapiens, UniProt P21728)
[13] = target: Protein kinase C alpha type (Homo sapiens, UniProt P17252)
[14] = target: Muscarinic acetylcholine receptor M2 (Homo sapiens, UniProt P08172)
[15] = target: Protein kinase C theta type (Homo sapiens, UniProt Q04759)
[16] = target: N-lysine methyltransferase SETD6 (Human, UniProt Q8TBK2)
[17] = target: T3, Interleukin-1 receptor-associated kinase 1 [184-712] (Human, UniProt P51617)
T3 construct: 184-712

[18] = target: Tyrosine-protein kinase BTK (Homo sapiens, UniProt Q06187)
[19] = target: T4, Mitogen-activated protein kinase kinase kinase 8 [30-404] (Human, UniProt P41279)
T4 construct: 30-404

[20] = target: T5, Tyrosine-protein kinase ABL1 [64-515] (Homo sapiens, UniProt P00519)
T5 construct: 64-515

[21] = target: Sodium-dependent noradrenaline transporter (Homo sapiens, UniProt P23975)
[22] = target: Serine/threonine-protein kinase 17B (Homo sapiens, UniProt O94768)
[23] = target: Histone-lysine N-methyltransferase NSD3 (Homo sapiens, UniProt Q9BZ95)
[24] = target: Tyrosine-protein kinase Lyn (Homo sapiens, UniProt P07948)
[25] = target: T6, Rho-associated protein kinase 2 [6-553] (Human, UniProt O75116)
T6 construct: 6-553

[26] = target: T7, Fibroblast growth factor receptor 2 [406-821] (Human, UniProt P21802)
T7 construct: 406-821

[27] = target: Methylosome protein 50/Protein arginine N-methyltransferase 5 (Homo sapiens, UniProt O14744)
[28] = target: Gamma-aminobutyric acid receptor subunit alpha-1 (Homo sapiens, UniProt P14867)
[29] = target: Alpha-1A adrenergic receptor (Homo sapiens, UniProt P35348)
[30] = target: Histone-lysine N-methyltransferase SUV39H2 (Human, UniProt Q9H5I1)
[31] = target: T8, Protein arginine N-methyltransferase 1 [11-371] (Homo sapiens, UniProt Q99873)
T8 construct: 11-371

[32] = target: Serine/threonine-protein kinase 4 (Human, UniProt Q13043)
[33] = target: Protein arginine N-methyltransferase 3 [N508S] (Homo sapiens, UniProt O60678, N508S)
[34] = target: Acetylcholine receptor subunit alpha (Homo sapiens, UniProt P02708)
[35] = target: Mitogen-activated protein kinase kinase kinase kinase 4 (Homo sapiens, UniProt O95819)
Estrogen receptor = Estrogen receptor (Homo sapiens, UniProt P03372)
[36] = target: DNA (cytosine-5)-methyltransferase 1 (Homo sapiens, UniProt P26358)

T2 sequence (P22455 388-802): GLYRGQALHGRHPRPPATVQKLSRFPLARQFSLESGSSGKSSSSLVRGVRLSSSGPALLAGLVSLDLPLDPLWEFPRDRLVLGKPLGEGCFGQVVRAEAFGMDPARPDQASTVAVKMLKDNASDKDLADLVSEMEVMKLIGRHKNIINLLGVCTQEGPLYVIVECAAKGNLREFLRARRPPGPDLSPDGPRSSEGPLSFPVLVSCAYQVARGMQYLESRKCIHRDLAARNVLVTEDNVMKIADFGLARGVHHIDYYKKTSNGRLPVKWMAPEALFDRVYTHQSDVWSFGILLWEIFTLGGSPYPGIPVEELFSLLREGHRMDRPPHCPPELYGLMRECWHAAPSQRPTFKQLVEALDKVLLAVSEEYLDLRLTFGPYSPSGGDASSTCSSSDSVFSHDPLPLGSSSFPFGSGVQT
Chain of Mitogen-activated protein kinase kinase kinase kinase 4 (O95819 whole entry): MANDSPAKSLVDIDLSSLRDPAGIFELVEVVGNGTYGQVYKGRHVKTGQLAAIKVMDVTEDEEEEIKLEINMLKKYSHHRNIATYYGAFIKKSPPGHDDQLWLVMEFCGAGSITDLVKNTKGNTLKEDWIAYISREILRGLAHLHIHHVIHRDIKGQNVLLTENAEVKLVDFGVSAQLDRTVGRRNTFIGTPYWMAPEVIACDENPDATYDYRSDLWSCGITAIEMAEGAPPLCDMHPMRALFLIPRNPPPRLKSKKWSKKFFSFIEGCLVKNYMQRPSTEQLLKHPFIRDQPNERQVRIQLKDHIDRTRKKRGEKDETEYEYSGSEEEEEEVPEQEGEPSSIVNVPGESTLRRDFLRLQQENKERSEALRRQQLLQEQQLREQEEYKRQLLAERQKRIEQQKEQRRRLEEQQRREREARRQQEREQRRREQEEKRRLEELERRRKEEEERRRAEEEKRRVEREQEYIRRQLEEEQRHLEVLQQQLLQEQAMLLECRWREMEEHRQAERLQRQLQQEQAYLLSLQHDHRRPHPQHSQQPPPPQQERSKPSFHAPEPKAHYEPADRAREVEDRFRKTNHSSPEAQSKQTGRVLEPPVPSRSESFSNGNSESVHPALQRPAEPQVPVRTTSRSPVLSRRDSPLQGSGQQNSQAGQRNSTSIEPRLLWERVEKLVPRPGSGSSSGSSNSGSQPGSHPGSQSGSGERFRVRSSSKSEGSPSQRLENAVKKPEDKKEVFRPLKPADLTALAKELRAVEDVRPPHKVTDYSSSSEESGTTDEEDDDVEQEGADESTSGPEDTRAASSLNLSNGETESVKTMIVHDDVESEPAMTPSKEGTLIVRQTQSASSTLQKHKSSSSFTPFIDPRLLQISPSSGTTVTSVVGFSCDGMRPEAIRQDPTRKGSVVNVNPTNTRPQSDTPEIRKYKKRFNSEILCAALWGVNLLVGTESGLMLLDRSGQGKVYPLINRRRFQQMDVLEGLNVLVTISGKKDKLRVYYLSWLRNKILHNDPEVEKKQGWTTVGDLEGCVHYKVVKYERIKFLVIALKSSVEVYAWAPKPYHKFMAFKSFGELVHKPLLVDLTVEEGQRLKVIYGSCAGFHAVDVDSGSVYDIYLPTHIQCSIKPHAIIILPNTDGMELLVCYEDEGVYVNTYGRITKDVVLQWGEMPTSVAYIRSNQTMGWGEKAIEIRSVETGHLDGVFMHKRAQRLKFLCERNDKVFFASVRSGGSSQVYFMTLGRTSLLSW
Chain of Histone-lysine N-methyltransferase NSD2 (O96028 whole entry): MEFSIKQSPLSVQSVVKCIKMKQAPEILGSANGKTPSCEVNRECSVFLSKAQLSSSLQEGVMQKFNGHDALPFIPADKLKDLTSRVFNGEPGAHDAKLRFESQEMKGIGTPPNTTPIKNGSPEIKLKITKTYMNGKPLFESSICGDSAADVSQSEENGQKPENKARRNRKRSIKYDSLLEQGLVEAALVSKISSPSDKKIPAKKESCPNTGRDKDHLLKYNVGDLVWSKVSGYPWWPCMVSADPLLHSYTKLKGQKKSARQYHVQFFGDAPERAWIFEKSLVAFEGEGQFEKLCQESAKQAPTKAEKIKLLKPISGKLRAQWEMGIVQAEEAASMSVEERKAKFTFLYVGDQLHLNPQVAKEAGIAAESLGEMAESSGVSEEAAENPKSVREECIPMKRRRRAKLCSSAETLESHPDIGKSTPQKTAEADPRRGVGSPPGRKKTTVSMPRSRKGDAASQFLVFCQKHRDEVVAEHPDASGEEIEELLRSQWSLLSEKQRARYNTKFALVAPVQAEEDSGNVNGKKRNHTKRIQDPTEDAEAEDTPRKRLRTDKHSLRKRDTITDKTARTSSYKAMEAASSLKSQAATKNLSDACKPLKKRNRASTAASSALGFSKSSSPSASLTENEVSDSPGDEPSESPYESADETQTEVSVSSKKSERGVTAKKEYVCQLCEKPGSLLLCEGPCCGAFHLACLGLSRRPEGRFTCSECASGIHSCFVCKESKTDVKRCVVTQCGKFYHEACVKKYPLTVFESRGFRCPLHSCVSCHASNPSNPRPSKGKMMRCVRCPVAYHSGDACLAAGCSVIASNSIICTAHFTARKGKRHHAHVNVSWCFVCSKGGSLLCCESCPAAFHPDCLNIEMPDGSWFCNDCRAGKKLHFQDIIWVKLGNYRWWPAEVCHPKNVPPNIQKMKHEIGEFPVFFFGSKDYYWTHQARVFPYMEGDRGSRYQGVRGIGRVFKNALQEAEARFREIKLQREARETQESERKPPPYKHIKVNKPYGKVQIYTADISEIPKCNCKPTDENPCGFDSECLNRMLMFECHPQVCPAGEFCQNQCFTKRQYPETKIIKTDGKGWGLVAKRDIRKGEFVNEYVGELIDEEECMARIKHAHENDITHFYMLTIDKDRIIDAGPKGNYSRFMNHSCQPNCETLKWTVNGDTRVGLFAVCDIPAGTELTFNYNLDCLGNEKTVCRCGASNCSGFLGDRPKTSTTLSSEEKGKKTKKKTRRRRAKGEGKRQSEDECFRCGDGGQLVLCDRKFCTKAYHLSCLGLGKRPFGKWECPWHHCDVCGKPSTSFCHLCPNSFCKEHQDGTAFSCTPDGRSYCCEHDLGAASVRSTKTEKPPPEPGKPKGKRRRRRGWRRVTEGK
Chain of Estrogen receptor (P03372 whole entry): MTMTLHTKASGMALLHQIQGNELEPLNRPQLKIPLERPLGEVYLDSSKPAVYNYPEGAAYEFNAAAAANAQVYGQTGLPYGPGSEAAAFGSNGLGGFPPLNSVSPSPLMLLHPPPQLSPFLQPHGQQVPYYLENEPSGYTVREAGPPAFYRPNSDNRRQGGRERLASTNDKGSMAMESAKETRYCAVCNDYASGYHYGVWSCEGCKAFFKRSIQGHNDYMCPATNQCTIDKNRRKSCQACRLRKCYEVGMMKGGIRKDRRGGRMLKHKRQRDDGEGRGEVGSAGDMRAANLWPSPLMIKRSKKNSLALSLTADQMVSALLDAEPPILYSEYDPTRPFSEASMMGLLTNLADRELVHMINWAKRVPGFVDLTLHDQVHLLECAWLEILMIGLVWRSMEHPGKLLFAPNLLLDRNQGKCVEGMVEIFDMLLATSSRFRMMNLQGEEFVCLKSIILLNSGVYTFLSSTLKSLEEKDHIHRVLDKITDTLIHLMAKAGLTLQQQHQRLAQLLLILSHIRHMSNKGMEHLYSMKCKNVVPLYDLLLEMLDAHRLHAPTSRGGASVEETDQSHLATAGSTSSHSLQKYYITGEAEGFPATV
Chain of D(1A) dopamine receptor (P21728 whole entry): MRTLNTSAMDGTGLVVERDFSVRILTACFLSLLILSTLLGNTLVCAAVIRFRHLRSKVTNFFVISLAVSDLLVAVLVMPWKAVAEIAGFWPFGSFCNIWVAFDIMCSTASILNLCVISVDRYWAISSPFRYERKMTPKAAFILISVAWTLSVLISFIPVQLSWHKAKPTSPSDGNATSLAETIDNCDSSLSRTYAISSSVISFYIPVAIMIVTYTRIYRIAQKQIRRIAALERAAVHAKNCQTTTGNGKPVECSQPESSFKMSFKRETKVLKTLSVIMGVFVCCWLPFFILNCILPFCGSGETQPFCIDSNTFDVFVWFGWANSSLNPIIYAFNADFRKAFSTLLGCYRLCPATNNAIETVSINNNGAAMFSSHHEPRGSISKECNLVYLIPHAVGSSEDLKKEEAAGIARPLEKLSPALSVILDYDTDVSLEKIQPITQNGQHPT

IC50 [1]: > 100 µM | IC50 [2]: > 100 µM | IC50 [3]: > 100 µM | IC50 [4]: > 100 µM | IC50 [5]: > 100 µM | IC50 [6]: > 100 µM | IC50 [7]: > 100 µM | IC50 [8]: > 100 µM | IC50 [9]: > 100 µM | IC50 [10]: > 10 µM | IC50 [11]: > 10 µM | IC50 [12]: > 30 µM | IC50 (D(1A) dopamine receptor): > 30 µM | IC50 [13]: > 10 µM | IC50 [14]: > 30 µM | IC50 [15]: > 10 µM | IC50 [16]: > 100 µM | IC50 [17]: > 10 µM | IC50 [18]: > 10 µM | IC50 [19]: > 10 µM | IC50 [20]: > 10 µM | IC50 [21]: > 30 µM | IC50 [22]: > 10 µM | IC50 [23]: > 100 µM | IC50 [24]: > 10 µM | IC50 [25]: > 10 µM | IC50 [26]: > 10 µM | IC50 [27]: > 100 µM | IC50 [28]: > 30 µM | IC50 [29]: > 30 µM | IC50 [30]: > 100 µM | IC50 [31]: > 100 µM | IC50 [32]: > 10 µM | IC50 [33]: > 100 µM | IC50 [34]: > 30 µM | IC50 [35]: > 10 µM | IC50 (Estrogen receptor): > 30 µM | IC50 [36]: > 100 µM
Compound: CS(=O)(=O)c1ccc(-c2cnc(NCc3ccco3)n3cnnc23)cc1 [EED226]
